Data as given in US20230270724A1, “PDE3 inhibitors for treating viral infections” (priority 2020, published 2023).
Values joined by “and” are separate entries in the source; they are usually repeats but may differ in a detail not shown here. Equal values may be shown once. “Also recorded” adds a separate entry of the source.

What was measured:
pro-inflammation = details: patients with cardiopulmonary bypass surgery; antiviral activity maintained; cited from earlier work
SARS-CoV-2 = assay: Clinical case series: enoximone IV (Perfan) in COVID-19 patients at ICU admission, compared with prior control patients; details: for FiO2 / RESP. RATE: one value per patient; for RESP. SUPPORT: one value per patient 1-4
[1] = at the doses used, all patients
[2] = one value per enoximone-treated subject (1-4 = c4-c7)

**Q.** Which “effectiveness against pro-inflammation compared with methylprednisolone” value (pro-inflammation) does the source give for `CSc1ccc(C(=O)c2[nH]c(=O)[nH]c2C)cc1` [enoximone, 1,3-dihydro-4-methyl-5-[4-(methylthio)benzoyl]-2H-imidazol-2-on] here?
**A.** as effective against pro-inflammation as methylprednisolone

**Q.** And the “time after start of enoximone until breathing calmly and able to call” value (SARS-CoV-2; Patient 1, 20 mg IV then perfusion 10 mg/h, monosyllabic upon entry)?
**A.** 10 min

**Q.** What about the “time until calmer breathing and mobilisation” value (SARS-CoV-2; Patient 2, 20 mg IV then 10 mg/h) of the same compound?
**A.** about 2 days

**Q.** What about the “time before the patient had lost the feeling of dyspnea” value (SARS-CoV-2; Patient 2, 20 mg IV then 10 mg/h, sputum retention) of the same compound?
**A.** 1 days

**Q.** And the “time until patient breathed optimally and Optiflow could be reduced to 0” value (SARS-CoV-2; Patient 3 (COPD Gold III), 20 mg IV then 10 mg/h)?
**A.** a day and a half

**Q.** And the “time until able to breathe calmly and communicate normally” value (SARS-CoV-2; Patient 4, bolus then i.v. perfusor 5 mg/hour during 24 hours)?
**A.** ≤ 10 min

**Q.** And the FiO2 (SARS-CoV-2; after 24 hrs of Enoximone)?
**A.** 60% and 55% and 50%

**Q.** What about the “RESP. RATE” value (SARS-CoV-2; after 24 hrs of Enoximone) of the same compound?
**A.** 15 and 12

**Q.** What about the “RESP. SUPPORT” value (SARS-CoV-2; after 24 hrs of Enoximone) of the same compound?
**A.** none and Optiflow (3×)

**Q.** And the FiO2 (SARS-CoV-2; after 48 hrs)?
**A.** 60% and 50%

**Q.** What about the “RESP. RATE” value (SARS-CoV-2; after 48 hrs) of the same compound?
**A.** 16 and 13

**Q.** And the “RESP. SUPPORT” value (SARS-CoV-2; after 48 hrs)?
**A.** none (2×) and Optiflow (2×)

**Q.** And the “persistence of beneficial effect” value (SARS-CoV-2; after discontinuation of enoximone, all patients)?
**A.** beneficial effect persisted even after discontinuation

**Q.** What about the adverse events (SARS-CoV-2; [1]) of the same compound?
**A.** no clinically relevant adverse events were observed

**Q.** And the tolerability (SARS-CoV-2; [1])?
**A.** well-tolerated in all patients

**Q.** And the blood gas analysis (SARS-CoV-2; between before and 1 h after enoximone)?
**A.** minimal improvement in three out of four patients

**Q.** And the “stay in ICU” value (SARS-CoV-2; enoximone-treated patients, controls 12-31 days)?
**A.** 2 to 5 days

**Q.** And the “discharge from hospital after start of enoximone treatment” value (SARS-CoV-2; enoximone-treated patients, controls 18-44 days following start of mechanical ventilation)?
**A.** 5 to 12 days

**Q.** What about the “overall stay in hospital” value (SARS-CoV-2; enoximone-treated patients, controls 22-46 days, Mann-Whitney U test p=0.05) of the same compound?
**A.** 13 to 15 days

**Q.** And the edema (SARS-CoV-2; following enoximone treatment)?
**A.** decrease of edema

**Q.** And the oxygenation (SARS-CoV-2; following enoximone treatment (Table 3, FiO2%))?
**A.** substantially improved

**Q.** What about the “need for mechanical ventilation” value (SARS-CoV-2; four enoximone-treated patients vs three controls, Fisher's exact test p=0.029) of the same compound?
**A.** none of the enoximone-treated patients required mechanical ventilation; also recorded: no need for mechanical ventilation

**Q.** What about the symptomatic relief (SARS-CoV-2; four patients) of the same compound?
**A.** rapid symptomatic relief in two out of four patients

**Q.** What about the Days mechanical ventilation (SARS-CoV-2; [2]) of the same compound?
**A.** 0 days

**Q.** What about the “Total days in hospital [=ii + iii + iv]” value (SARS-CoV-2; [2]) of the same compound?
**A.** 14 days and 13 days and 15 days

**Q.** And the “Total duration of disease (onset-discharge) [=i + ii + iii + iv)” value (SARS-CoV-2; [2])?
**A.** 19 and 20 and 26

**Q.** What about the “time to full recovery” value (SARS-CoV-2; patients 1 and 4) of the same compound?
**A.** within a few hours

**Q.** And the time to respond (SARS-CoV-2; patients 2 and 3 (comorbid obesity or COPD GOLD III), sputum retention)?
**A.** 24 to 36 h
